Assay [1] has as its target T1, Leucotriene D4 Receptor (Cavia porcellus, UniProt Q2NNR5).
T1 construct: guinea pig pulmomembranous protein; from tissue; host or cells: guinea pig lung membranes
T1 sequence (Q2NNR5 1-340): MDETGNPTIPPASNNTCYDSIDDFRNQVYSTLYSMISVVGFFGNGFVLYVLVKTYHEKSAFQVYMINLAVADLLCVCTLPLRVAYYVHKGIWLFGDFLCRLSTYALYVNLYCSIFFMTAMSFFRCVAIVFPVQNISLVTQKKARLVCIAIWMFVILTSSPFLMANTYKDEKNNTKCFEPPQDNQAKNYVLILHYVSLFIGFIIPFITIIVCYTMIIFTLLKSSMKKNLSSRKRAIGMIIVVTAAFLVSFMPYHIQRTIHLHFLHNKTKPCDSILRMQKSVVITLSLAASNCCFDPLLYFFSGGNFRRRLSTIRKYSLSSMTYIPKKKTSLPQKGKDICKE
The assay can be described thus: Leucotriene D4 Receptor Binding Inhibition Test. Also noted: species or system guinea pig. How it is done:
An ice-cooled tris hydrochloride/sodium chloride buffer (10 mM/100 mM, pH 7.5) was added to terminate the reaction, followed by immediate filtration through a Wattman CF/C filter. The filter was washed twice with 20 ml aliquots of the ice-cooled buffer. The radioactivity of the residue was measured by a liquid scintillation counter. […] Using the Cheng-Prusoff formula, a dissociation constant (KD) was calculated from the IC50. […] Incidentally, the values in Table 2 indicate dissociation constants KD (mol).

The test system of assay [2] is airway. Particulars: Larsen & Acosta 1993, cited from earlier work.
The test system of assay [3] is isolated guinea pig ileum. The experiment in a line: Antileucotriene D4 Action (In Vitro Test): leukotriene D4 contractile response of isolated guinea pig ileum. It counts as cell-based. Particulars: Cavia porcellus, 0.5 h; read-out: Anti-LT action (IC50). On the procedure:
Antileucotriene D4 Action (In Vitro Test)
An isolated guinea pig ileum was cut into about 2 cm lengths. Each ileum piece was suspended in a 20-ml container filled with the Krebs buffer. […] The Krebs buffer was controlled at 37° C., through which a mixed gas (95%O2 -5%CO2) was bubbled. […] After the ileum piece was washed several times with the buffer, a test compound (will be identified by its example number; this will apply likewise hereinafter) of a predetermined specific concentration was added.

Where [4] appears, read: read-out: LTD receptor, dissociation constant KD.
[5] abbreviates: 0.2 nM [3H]leukotriene D4, guinea pig pulmomembranous protein, pH 7.5, 30 min, calculated from IC50 by Cheng-Prusoff formula, read-out: LTD receptor, dissociation constant KD.

Read-outs that look alike come from different tables or passages of the source.

Broadly, the Kd is the free concentration of one partner at which half of the binding sites on the other are occupied at equilibrium, for simple one-to-one binding. For `O=C(O)c1cccc2c(=O)c(O)c(-c3ccc(OCc4ccc5ccccc5n4)cc3)oc12` [Example 29, 8-carboxy-3-hydroxy-4'-[(2-quinolinyl)methoxy]flavone], the Kd in assay [1] (setting [4]) is 805 nM.

In the case of `CCOC(=O)c1cc(Br)cc2c(=O)cc(-c3cccc(OCc4nc5ccccc5n4C)c3)oc12` [Example 17, 6-bromo-8-ethoxycarbonyl-3'-[2-(1-methylbenzimidazolyl)methoxy]flavone], in assay [1] (setting [4]), the Kd was 210 nM.

Turning to `CCCCC/C=C\C\C=C/C=C/C=C/[C@@H](SC[C@H](NC(=O)CC[C@H](N)C(=O)O)C(=O)NCC(=O)O)[C@@H](O)CCCC(=O)O` [LTC4], the “effect on airway constriction relative to histamine” value in assay [2] (inhaled, vs histamine) was 1,000 times.

Turning to `O=c1cc(-c2cccc(/C=C/c3ccc4ccccc4n3)c2)oc2ccc(-c3nnn[nH]3)cc12` [Example 37, 3'-[2-(2-quinolinyl)ethenyl]-6-(5-tetrazolyl)flavone], the Kd in assay [1] (setting [5]) was 307 nM. As usually defined, the IC50 is the concentration that inhibits the measured activity by half. For `O=C(O)c1cc(Br)cc2c(=O)cc(-c3cccc(/C=C/c4ccc5ccccc5n4)c3)oc12` [Example 42, 8-carboxy-6-bromo-3'-[2-(2-quinolinyl)ethenyl]flavone], the IC50 in assay [3] was 100 nM.

Take `O=C(O)c1cccc2c(=O)c(OCCN3C(=O)c4ccccc4C3=O)c(-c3ccc(OCc4ccc5ccccc5n4)cc3)oc12` [Example 31, 8-carboxy-3-(2-phthalimido)ethoxy-4'-[(2-quinolinyl)methoxy]flavone]: the Kd in assay [1] (setting [4]) came out at 9160 nM. On to `O=C(O)c1cc(Cl)cc2c(=O)cc(-c3cccc(/C=C/c4ccc5ccccc5n4)c3)oc12` [Example 41, 8-carboxy-6-chloro-3'-[2-(2-quinolinyl)ethenyl]flavone], for which, in assay [3], the IC50 was determined as 15 nM. As to `O=c1cc(-c2cccc(/C=C/c3ccc4ccccc4n3)c2)oc2c(-c3nn[nH]n3)cc(Cl)cc12` [Example 45, 6-chloro-3'-[2-(2-quinolinyl)ethenyl]-8-(5-tetrazolyl)flavone], the Kd in assay [1] (setting [4]) stood at 11 nM. Turning to `O=C(O)c1cc(F)cc2c(=O)cc(-c3cccc(/C=C/c4ccc5ccccc5n4)c3)oc12` [Example 40, 8-carboxy-6-fluoro-3'-[2-(2-quinolinyl)ethenyl]flavone], the Kd in assay [1] (setting [5]) was 127 nM. As for `O=C(O)c1cc(Br)cc2c(=O)cc(-c3cccc(OCc4nc5ccccc5s4)c3)oc12` [Example 27, 6-bromo-8-carboxy-3'-(2-benzothiazolylmethoxy)flavone], the dissociation constant Kd in assay [1] (setting [5]) is 79.4 nM. As for `CCOC(=O)c1cc(Br)cc2c(=O)cc(-c3cccc(OCc4nc5ccccc5s4)c3)oc12` [Example 18, 6-bromo-8-ethoxycarbonyl-3'-[(2-benzothiazolinyl)methoxy]flavone], the dissociation constant (Kd) in assay [1] (setting [4]) is 79.4 nM.

As for `Cn1c(COc2cccc(-c3cc(=O)c4cc(Br)cc(C(=O)O)c4o3)c2)nc2ccccc21` [Example 28, 6-bromo-8-carboxy-3'-[2-(1-methylbenzimidazolyl)methoxy]flavone], in assay [1] (setting [5]), the equilibrium dissociation constant (Kd) was 210 nM. Regarding `O=C(O)c1cccc2c(=O)cc(-c3cccc(/C=C/c4ccc5ccccc5n4)c3)oc12` [Example 39, 8-carboxy-3'-[2-(2-quinolinyl)ethenyl]flavone], the dissociation constant (Kd) in assay [1] (setting [4]) is 17.3 nM. As to “[^3 H]leukotriene D4 [reference compound]”, in assay [1] ([3H]leukotriene D4, guinea pig pulmomembranous protein, read-out: dissociation constant (KD) of radioligand), the dissociation constant (Kd) was determined as 0.216 nM. In assay [1] ([3H]leukotriene D4 binding), this molecule showed a Hill plot slope of 0.99. As to `O=C(O)c1cc(Br)cc2c(=O)cc(-c3cccc(OCc4ccc5ccccc5c4)c3)oc12` [Example 26, 6-bromo-8-carboxy-3'-(2-naphthylmethoxy)flavone], the Kd in assay [1] (setting [5]) was 1130 nM.

On to `Cc1cc(C(=O)O)c2oc(-c3cccc(/C=C/c4ccc5ccccc5n4)c3)cc(=O)c2c1` [Example 43, 8-carboxy-6-methyl-3'-[2-(2-quinolinyl)ethenyl]flavone], for which the IC50 in assay [3] is 28 nM. In the case of `O=C(O)c1cc(Br)cc2c(=O)cc(-c3cccc(OCc4ccc5ccccc5n4)c3)oc12` [Example 23, 6-bromo-8-carboxy-3'-(2-guinolinylmethoxy)flavone], the half-inhibitory concentration (IC50) in assay [3] came to 61 nM. As for `CCOC(=O)c1cc(Br)cc2c(=O)cc(-c3cccc(OCc4ccc5ccc(Cl)cc5n4)c3)oc12` [Example 14, 6-bromo-8-ethoxycarbonyl-3'-[2-(7-chloroquinolinyl)methoxy]flavone], the Kd in assay [1] (setting [4]) was 11.1 nM. For `CCCCC/C=C\C\C=C/C=C/C=C/[C@@H](SC[C@H](N)C(=O)O)[C@@H](O)CCCC(=O)O` [LTE4], in assay [2], the “activity compared with the other leucotrienes” value is reported as “lower activities compared with the other leucotrienes” and the “duration of induced airway constriction” value is “long lasting”.

The values are drawn from US6136848A, “Flavone derivative and medicine comprising the same” (Kowa Co., Ltd., priority 1996, dated 2000).
